In article PMC6383986, “Fragment-Based Covalent Ligand Screening Enables Rapid Discovery of Inhibitors for the RBR E3 Ubiquitin Ligase HOIP” (Journal of the American Chemical Society, 2019):

Test system: E1, UbcH5c, UbcH7, HOIL-1L, RNF144A, HHARI, TRIAD3A RBR domains, NEDD4L, E6AP, OTULIN, CYLD-1
Test: LC-MS-based enzyme counter screen
Format: binding
Conditions: 10-fold stoichiometric excess, 24 h incubation
Experimental: 0.1% formic acid in water. The samples were analyzed on a Q Exactive MS (Thermo Fisher) coupled to an Easy-nLC chromatographic system (Thermo Fisher) with a nano ESI source (Thermo Fisher). Each sample (2 µL) was injected and trapped on a C18 Acclaim pepMap 100 enrichment column (75 µm id × 2 cm, 3 µm nanoviper, Thermo Fisher). The samples were transferred to a C18 Acclaim PepMap RSLC analytical column (75 µm id × 15 cm, 2 µm, Thermo Fisher) at 300 nL/min. Mobile phase A (0.1% Formic acid in water, v/v); mobile phase B (0.1% […]
min (70-95% B), 56-61 min (95% B). The nanospray ionisation source was operated in the positive mode with spray voltage set at 2 kV, and heated capillary at 250 °C. The Q Exactive was operated in the data dependent mode and the top 15 most intense ions were subjected to HCD fragmentation with normalised collision energy set at 26%. The MS1 scans were performed at a resolution of 70 000 from 400-1600 m/z, automatic gain control (AGC) value 3 e6, maximum injection time 100 ms. […]
Compounds (1) and (5) were screened against E1, the E2s UbcH5c and UbcH7, the RBR domains of the E3 ligases HOIP, HOIL-1L, RNF144A, HHARI and TRIAD3A, the HECT E3 ligases NEDD4L and E6AP, and the DUBs OTULIN and CYLD-1. […] The samples were analyzed after 0.5 and 24 h incubation. […]

labeling of all other proteins screened: < 40%
SMILES: COC(=O)/C=C/CNC(=O)c1cc2c([nH]c1=O)CCC2 [Compound 5]
